What follows are compounds tested against T1, VLA-4 (Homo sapiens, UniProt P05556+P13612) (assay: VLA-4 direct binding assay (VCAM-IgG alkaline phosphatase conjugate binding to Jurkat cells)). Details: Table 1, Structure-Activity; assay and unit inferred; read-out: Act.
T1 construct: endogenous in cells; host or cells: Jurkat cells
From the text: A direct binding assay may also be employed to quantitate the inhibitory activity of the compounds of this invention. (“DBA”) In direct binding assays, for example, a VCAM-IgG fusion protein containing the first two immunoglobulin domains of VCAM (D1D2) attached above the hinge region of an IgG1 molecule (“VCAM 2D-IgG”), is conjugated to a marker enzyme, such as alkaline phosphatase (“AP”). The synthesis of this VCAM-IgG fusion is described in PCT publication WO 90/13300, the disclosure of which is herein incorporated by reference. The conjugation of that fusion to a marker enzyme can be achieved by cross-linking methods well-known in the art.
The VCAM-IgG enzyme conjugate is then placed in the wells of a multi-well filtration plate, such as that contained in the Millipore Multiscreen Assay System (Millipore Corp., Bedford, Mass.). Varying concentrations of the test inhibitory compound are then added to the wells followed by addition of VLA-4-expressing cells. The cells, compound and VCAM-IgG enzyme conjugate are mixed together and allowed to incubate at room temperature.
Following incubation, the wells are vacuum drained, leaving behind the cells and any bound VCAM. Quantitation of bound VCAM is determined by adding an appropriate calorimetric substrate for the enzyme conjugated to VCAM-IgG and determining the amount of reaction product. Decreased reaction product indicates increased binding inhibitory activity. The protocol is described more specifically below:
1. Block a 96 well Millipore Multiscreen Assay System filtration plate^1 with 200:l/well of blocking buffer (1×Phosphate Buffered Saline, 0.1%Tween 20, 1%BSA) for at least 1 hour at room temperature.
2. Drain the plate with the vacuum manifold, and wash with 200 μl/well of assay buffer (Tris Buffered Saline, 0.1% BSA, 2 mM glucose, 10 mM HEPES, pH 7.5) draining the plate in between. Repeat twice. Then blot the plate bottom on paper to remove excess buffer.
3. Prepare a 4 μg/ml VCAMIg-AP solution (Alkaline phosphatase coupled to VCAMIg) in assay buffer and filter with a 0.2:low protein binding syringe filter (Gelman Sciences #4454). From this stock, prepare a 0.4 μg/ml working solution of VCAMIg-AP in assay buffer. Add 25:l of 0.4 μg/ml VCAMIg-AP to every well.
5. Prepare dilutions of compounds to be tested in assay buffer. Concentrations should be 4× the desired final concentration and run in triplicate. Add 25 μl of the compound dilutions to designated wells.
7. Jurkat cells are centrifuged to remove cell culture media and washed once in assay buffer. Resuspend the washed Jurkat cells to a concentration of 8×10^6/ml in assay buffer containing 2 mM MnCl2. Pipeting the mixture up and down to ensure a uniform cell suspension. Add 50:l of cell suspension to each well except the NSB wells.
8. Gently tap the sides of the plate to mix well contents. Incubate the plate for 60 minutes at room temperature (RT).
9. Place the plate on the vacuum manifold to drain the well contents. Wash twice with 100 μl/well of wash buffer (assay buffer containing 1 mM MnCl2). Drain the plate and blot on paper towels.
10. Add 10 mg/ml of 4-Nitro phenyl phosphate to Substrate buffer (0.1M glycine, 1 mM ZnCl2, 1 mM MgCl2, pH 10.5). Add 100 μl/well and incubate for exactly 30 minutes at RT.
11. To stop the reaction, add 100 μl/well of 3N NaOH.
12. Read the 96-well plate in a Molecular Devices ELISA platereader at 405 nm. Analyze data with SoftMax software.

T1 sequence (P13612 34-1032): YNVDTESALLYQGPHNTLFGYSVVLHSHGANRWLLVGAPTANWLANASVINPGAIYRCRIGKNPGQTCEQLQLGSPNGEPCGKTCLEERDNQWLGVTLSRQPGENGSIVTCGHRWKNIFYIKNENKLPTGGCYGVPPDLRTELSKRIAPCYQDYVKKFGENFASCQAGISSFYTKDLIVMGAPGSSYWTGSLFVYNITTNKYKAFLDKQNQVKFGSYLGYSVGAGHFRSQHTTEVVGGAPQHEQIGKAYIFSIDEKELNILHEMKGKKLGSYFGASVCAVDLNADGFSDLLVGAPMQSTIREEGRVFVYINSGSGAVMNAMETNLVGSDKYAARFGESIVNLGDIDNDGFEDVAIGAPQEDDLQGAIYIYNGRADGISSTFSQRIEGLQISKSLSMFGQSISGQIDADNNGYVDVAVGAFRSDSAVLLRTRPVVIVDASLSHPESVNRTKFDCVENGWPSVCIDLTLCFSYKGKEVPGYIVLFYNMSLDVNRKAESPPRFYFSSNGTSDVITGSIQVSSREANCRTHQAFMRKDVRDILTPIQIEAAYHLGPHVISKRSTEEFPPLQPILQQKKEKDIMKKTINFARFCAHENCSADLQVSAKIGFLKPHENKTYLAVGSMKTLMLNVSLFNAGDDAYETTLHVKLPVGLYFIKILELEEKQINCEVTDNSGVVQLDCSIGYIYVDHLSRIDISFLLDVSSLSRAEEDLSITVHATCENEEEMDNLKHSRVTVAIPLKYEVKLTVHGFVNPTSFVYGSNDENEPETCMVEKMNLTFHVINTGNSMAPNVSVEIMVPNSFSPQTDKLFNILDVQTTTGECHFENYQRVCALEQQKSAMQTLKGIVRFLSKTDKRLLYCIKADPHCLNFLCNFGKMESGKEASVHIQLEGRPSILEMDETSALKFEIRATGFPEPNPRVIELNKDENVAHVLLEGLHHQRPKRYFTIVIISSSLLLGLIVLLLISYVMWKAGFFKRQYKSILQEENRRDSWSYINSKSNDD
T1 sequence (P05556 21-798): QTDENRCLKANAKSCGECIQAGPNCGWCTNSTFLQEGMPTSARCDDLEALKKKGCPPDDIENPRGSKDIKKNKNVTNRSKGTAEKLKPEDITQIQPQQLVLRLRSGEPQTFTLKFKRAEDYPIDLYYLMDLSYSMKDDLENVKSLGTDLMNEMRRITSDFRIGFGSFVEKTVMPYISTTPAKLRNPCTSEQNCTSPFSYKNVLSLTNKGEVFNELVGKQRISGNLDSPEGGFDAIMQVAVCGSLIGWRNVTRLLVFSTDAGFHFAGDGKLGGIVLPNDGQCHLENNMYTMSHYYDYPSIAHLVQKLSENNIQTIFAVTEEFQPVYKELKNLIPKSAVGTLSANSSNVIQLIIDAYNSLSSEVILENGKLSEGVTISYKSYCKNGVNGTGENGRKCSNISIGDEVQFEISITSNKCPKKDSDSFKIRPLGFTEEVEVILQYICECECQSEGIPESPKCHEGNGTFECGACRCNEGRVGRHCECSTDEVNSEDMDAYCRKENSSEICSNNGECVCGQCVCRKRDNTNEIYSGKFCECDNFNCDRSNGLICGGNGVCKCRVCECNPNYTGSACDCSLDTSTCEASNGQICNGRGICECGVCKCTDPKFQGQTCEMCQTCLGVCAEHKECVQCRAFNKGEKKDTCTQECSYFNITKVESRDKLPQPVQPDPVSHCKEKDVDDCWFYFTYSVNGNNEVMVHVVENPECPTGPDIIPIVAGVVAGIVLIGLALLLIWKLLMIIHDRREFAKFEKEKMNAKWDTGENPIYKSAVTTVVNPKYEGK

Compound | IC50
Cc1c(C(=O)Nc2ccc3c(c2)C(=O)N(CCC(=O)O)CC(=O)N3C)c(=O)n(-c2ccccc2)n1C [BX6] | 15400 nM
Cc1ccccc1NC(=O)Nc1ccc(NC(=O)C[C@@H](CC(C)C)C(=O)NC(CC(=O)O)c2ccc3c(c2)OCO3)cc1 (stereo partly drawn) [SX56] | 55 nM
Cc1ccccc1NC(=O)Nc1ccc(CC(=O)Nc2ccc3c(c2)C(=O)N(CCC(=O)O)CC(=O)N3CC2CCCO2)cc1 (stereo not drawn) [BX55] | 120 nM
Cc1ccccc1NC(=O)Nc1ccc(CC(=O)NCc2cccc(OCCCC(=O)O)c2)cc1 [RX14] | 652 nM
Cc1ccccc1NC(=O)Nc1ccc(CC(=O)Nc2cc3c(cc2Cl)N(C)C(=O)CN(CCC(=O)O)C3=O)cc1 [BX37] | 643 nM
COc1ccc([C@H](CC(=O)O)NC(=O)C(CC(=O)Nc2ccc(COCc3ccccc3)cc2)CC(C)C)cc1OC (stereo partly drawn) [SX29] | 700 nM
CC(C)CN(CC(=O)Nc1ccc(NC(=O)Nc2ccccc2)cc1)C(=O)CN(CCC(=O)O)C(=O)Cc1ccccc1 [AX24] | 300 nM
Cc1ccccc1NC(=O)Nc1ccc(CC(=O)N(C)c2ccc3c(c2)C(=O)N(CCC(=O)O)CC(=O)N3C)cc1 [BX23] | 3240 nM
COc1ccc(C(CC(=O)O)NC(=O)C(CC(=O)NCc2ccccc2)CC(C)C)cc1 (stereo not drawn) [SX6] | 6750 nM
Cc1ccccc1NC(=O)Nc1ccc(NC(=O)[C@@H]2CCCN2C(=O)CC[C@@H](C)CC(=O)O)cc1 [CX9] | 332 nM
Cc1ccccc1NC(=O)Nc1ccc(NC(=O)[C@@H]2CCCN2C(=O)NCCC(=O)O)cc1 [CX7] | 190 nM
Cc1ccccc1NC(=O)Nc1ccc(CC(=O)Nc2ccc3c(c2)C(=O)N(CCCCC(=O)O)CC(=O)N3C)cc1 [BX15] | 5130 nM
O=C(O)CCNC(=O)[C@@H]1CCCN(C(=O)Cc2ccc(NC(=O)Nc3ccccc3)cc2)C1 [MX1] | 872 nM
Cc1ccccc1NC(=O)Nc1ccc(CC(=O)Nc2ccc3c(c2)C(=O)N(CCC(=O)O)CC(=O)N3C2CCN(Cc3ccccc3)CC2)cc1 [BX43] | 273 nM
COc1ccc(C(CC(=O)O)NC(=O)CCC(=O)Nc2ccc(NC(=O)Nc3ccccc3C)cc2)cc1OC (stereo not drawn) [SX51] | 142 nM
COc1cccc(C(=O)N(CCC(=O)O)CC(=O)N(CCC(C)C)CC(=O)Nc2ccc(-c3nnc(-c4ccccc4)o3)cc2)c1 [AX5] | 35 nM
COCCCN1CC(=O)N(CCC(=O)O)Cc2cc(NC(=O)Cc3ccc(NC(=O)Nc4ccccc4C)cc3)ccc21 [BX70] | 30.5 nM
Cc1ccccc1NC(=O)Nc1ccc(NC(=O)c2ccc3c(c2)NC(CC(=O)O)C(=O)N(C)C3)cc1 (stereo not drawn) [BX36] | 646 nM
Cc1ccccc1NC(=O)Nc1ccc(NC(=O)Nc2cccc(OCCCC(=O)O)c2)cc1 [RX13] | 686 nM
Cc1ccccc1NC(=O)Nc1ccc(C(=O)NCc2ccc3c(c2)C(=O)N(CCC(=O)O)CC(=O)N3C)cc1 [BX29] | 825 nM
COc1ccc([C@H](CC(=O)O)NC(=O)C(CC(=O)Nc2ccc(CCCc3ccccc3)cc2)CC(C)C)cc1OC (stereo partly drawn) [SX14] | 8240 nM
COc1ccc([C@H](CC(=O)O)NC(=O)C(CC(=O)Nc2ccc(C(N)=O)cc2)CC(C)C)cc1OC (stereo partly drawn) [SX15] | 3000 nM
Cc1ccccc1NC(=O)Nc1ccc(CC(=O)Nc2ccc3c(c2)C(=O)N(CCC(=O)O)CC(=O)N3CCc2ccccc2)cc1 [BX52] | 132 nM
COc1ccc(CCN2CC(=O)N(CCC(=O)O)Cc3cc(NC(=O)Cc4ccc(NC(=O)Nc5ccccc5C)cc4)ccc32)cc1OC [BX68] | 35 nM
COc1ccc(C(CC(=O)O)NC(=O)C(CC(=O)NCc2ccccc2)CC(C)C)cc1 (stereo not drawn) [SX28] | 717 nM
COc1ccc([C@H](CC(=O)O)NC(=O)C(C)CC(=O)Nc2ccc(NC(=O)Nc3ccccc3C)cc2)cc1OC (stereo partly drawn) [SX9] | 5120 nM
CC(=O)N(CCCC(=O)O)Cc1cccc(NC(=O)Cc2ccc(NC(=O)Nc3ccccc3C)cc2)c1 [RX20] | 250 nM

Compound | IC50
Cc1ccccc1NC(=O)Nc1ccc(NC(=O)c2ccc3c(c2)C(=O)N(CCC(=O)O)CC(=O)N3C)cc1 [BX17] | 977 nM
Cc1ccccc1NC(=O)Nc1ccc(CC(=O)Nc2cccc(OC/C=C/C(=O)O)c2)cc1 [RX21] | 285 nM
COc1ccc(C(=O)N(CCC(=O)O)CC(=O)N(CCC(C)C)CC(=O)Nc2ccccc2)cc1 [AX7] | 11500 nM
Cc1ccccc1NC(=O)Nc1ccc(CC(=O)Nc2cccc(OCCCC(=O)O)c2)cc1 [RX23] | 144 nM
Cc1ccccc1NC(=O)Nc1ccc(CC(=O)Nc2ccccc2OCCC(=O)O)cc1 [UX1] | 4500 nM
Cc1ccccc1NC(=O)Nc1ccc(N2CC[C@@H](CC(=O)N[C@H](C)CC(=O)O)C2=O)cc1 [SX26] | 769 nM
COCCN1CC(=O)N(CCC(=O)O)Cc2cc(NC(=O)Cc3ccc(NC(=O)Nc4ccccc4C)cc3)ccc21 [BX61] | 99.3 nM
COc1ccc(C(CC(=O)O)NC(=O)C(CC(=O)Nc2ccc(NC(=O)Nc3ccccc3C)cc2)CC(C)C)cc1 (stereo not drawn) [SX13] | 3490 nM
CCOc1cc(NC(=O)Cc2ccc(NC(=O)Nc3ccccc3C)cc2)cc(OCCCC(=O)O)c1 [RX27] | 50 nM
Cc1ccccc1NC(=O)Nc1ccc(CC(=O)Nc2cccc(CN(CCC(=O)O)C(=O)Cc3ccccc3)c2)cc1 [RX8] | 2250 nM
Cc1ccccc1NC(=O)Nc1ccc(CC(=O)Nc2ccc3c(c2)CN(CCC(=O)O)C(=O)CN3CCN2CCOCC2)cc1 [BX69] | 31.5 nM
Cc1ccccc1NC(=O)Nc1ccc(NC(=O)CN(CCC(C)C)C(=O)CN(CCC(=O)O)C(=O)CN2CCCCC2)cc1 [AX22] | 636 nM
COc1cccc(C(=O)N(CCC(=O)O)CC(=O)N(CCC(C)C)CC(=O)Nc2cccc(C(=O)CC(=O)Nc3nccs3)c2)c1 [AX15] | 2410 nM
CC(C)CCN(CC(=O)Nc1ccccc1)C(=O)CN(CCC(=O)O)C(=O)c1ccccc1 [AX12] | 4120 nM
Cc1ccccc1NC(=O)Nc1ccc(CC(=O)Nc2ccc3c(c2)C(=O)N(CCC(=O)O)CC(=O)N3Cc2ccc(F)cc2)cc1 [BX48] | 166 nM
Cc1ccccc1NC(=O)Nc1ccc(NC(=O)CN(CCC(=O)O)C(=O)CN(CCC(=O)O)C(=O)c2ccccc2)cc1 [AX38] | 60 nM
Cc1ccccc1NC(=O)Nc1ccc(NC(=O)CN(CCC(C)C)C(=O)CN(CCC(=O)O)C(=O)N2CCOCC2)cc1 [AX37] | 60.5 nM
Cc1ccccc1NC(=O)Nc1ccc(NC(=O)[C@@H]2CCCN2C(=O)CCCC(=O)O)cc1 [CX8] | 480 nM
COc1cccc(C(=O)N(CCC(=O)O)CC(=O)N(CCC(C)C)CC(=O)Nc2ccc(NC(=O)c3cc4ccccc4cn3)cc2)c1 [AX16] | 2840 nM
COc1ccc([C@H](CC(=O)O)NC(=O)C(CC(=O)Nc2ccc(NC(=O)Nc3ccccc3)cc2)CC(C)C)cc1OC (stereo partly drawn) [SX41] | 310 nM
Cc1ccccc1NC(=O)Nc1ccc(CC(=O)Nc2ccc3c(c2)C(=O)N(CCC(=O)O)CC(=O)N3Cc2ccccc2)cc1 [BX58] | 116 nM
COc1ccc([C@H](CC(=O)O)NC(=O)CCC(=O)Nc2ccc(NC(=O)Nc3ccccc3)c(O)c2)cc1OC [SX45] | 216 nM
Cc1ccccc1NC(=O)Nc1ccc(CC(=O)Nc2ccc(C)c(OCCCC(=O)O)c2)cc1 [RX24] | 855 nM
Cc1ccccc1NC(=O)Nc1ccc(CC(=O)Nc2cccc(OCCC(=O)O)c2)cc1 [RX19] | 317 nM
COc1ccc([C@H](CC(=O)O)NC(=O)C(N)CC(=O)Nc2ccc(NC(=O)Nc3ccccc3C)cc2)cc1OC (stereo partly drawn) [SX19] | 1940 nM
COc1ccc(C(CC(=O)O)NC(=O)C(CC(=O)Nc2ccc(NC(=O)Nc3ccccc3)cc2)CC(C)C)cc1 (stereo not drawn) [SX23] | 1330 nM
Cc1ccccc1NC(=O)Nc1ccc(CC(=O)Nc2cccc(NCCC(=O)O)c2)cc1 [RX15] | 650 nM

Reference: patent publication US6686350B1, “Cell adhesion inhibitors” (Biogen, Inc., priority 1996, dated 2004)
